Measurements as given in paper PMC7031696 (Cell chemical biology, 2019).
Like-named read-outs stand apart in the source and are kept apart here.

Experiments:
[1] = test system: Plasmodium falciparum 3D7-A10 parasites; test: Stage specificity assay (8-h exposure of synchronized stages, IC50^8h); type: cell-based; details: for IC50: Plasmodium falciparum
[2] = test system: asynchronous 3D7-A10 parasite cultures; test: Standard 72-h exposure asexual blood stage susceptibility assay (IC50^72h); type: cell-based, Plasmodium falciparum; details: Plasmodium falciparum, 3D7, 72 h, read-out: Overall (72hr assay) Mean IC50 (IC50^72h)
[3] = test system: 3D7-MR4 trophozoite parasite-infected RBCs; test: Metabolomic profiling (hydrophilic metabolite changes, UHPLC-MS); type: cell-based, Plasmodium falciparum
[4] = test system: 3D7-MR4 trophozoite parasite-infected RBCs; details: 10 × IC50^72h; ref Allman et al., 2016; cited from earlier work
[5] = test system: 3D7-A10 or Dd2-B2 parasites; details: 3 × IC50^72h drug concentrations; ref Phillips et al., 2015; cited from earlier work

Structure (SMILES): Cc1cc(Nc2ccc(S(F)(F)(F)(F)F)cc2)n2nc(C(C)(F)F)nc2n1 [DSM265, reference compound]
- Ratio lowest IC50 8hr/IC50 72hr ([1]; 3D7-A10): 2.0
- overall activity profile (stages on which active) ([1]; 8-h exposures): activity against late trophozoites only
- killing in stage specificity assay ([1]; 8-h exposures, survival curves): incomplete killing
- IC50 ([1]; 3D7, read-out: Early rings Mean IC50, shift 2): 4.82 µM
- IC50 ([1]; 3D7, read-out: Early trophozoites Mean IC50, shift 1): 0.0102 µM
- IC50 ([1]; 3D7, read-out: Early trophozoites Mean IC50, shift 2): 1.48 µM
- IC50 ([1]; 3D7, read-out: Late rings Mean IC50, shift 2): 1.49 µM
- IC50 ([1]; 3D7, read-out: Late trophozoites Mean IC50, shift 1): 0.0077 µM
- IC50 ([1]; 3D7, read-out: Schizonts IC50, shift 2): > 25 µM
- IC50 ([1]; 3D7, read-out: Schizonts Mean IC50, shift 1): 0.0192 µM
- shape of survival curve ([1]; early trophozoite and schizont stages): biphasic survival curve
- Stage of peak activity (Figure 6) ([1]; period when the parasite was most susceptible (lowest IC50^8h)): late trophozoite stages
- Peak Activity (Table S1) ([1]; stage(s) with the lowest IC50^8h): Late Trophs
- IC50 [2]: 0.0038 µM
- Log2(fold changes) 3-phosphoglycerate ([3]; metabolite 3-phosphoglycerate, log2 fold change): 0.0300
- Log2(fold changes) 4-Pyridoxic acid ([3]; metabolite 4-Pyridoxic acid, log2 fold change): -1.9900
- Log2(fold changes) 4-aminobutyrate ([3]; metabolite 4-aminobutyrate, log2 fold change): 0.1300
- Log2(fold changes) 4-phosphopantetheine ([3]; metabolite 4-phosphopantetheine, log2 fold change): 0.0000
- Log2(fold changes) 4-phosphopantothenate ([3]; metabolite 4-phosphopantothenate, log2 fold change): -0.1800
- Log2(fold changes) 5-aminopentanoic acid ([3]; metabolite 5-aminopentanoic acid, log2 fold change): 0.0000
- Log2(fold changes) 5-methyl-THF ([3]; metabolite 5-methyl-THF, log2 fold change): 0.0000
- Log2(fold changes) 5-phosphoribosyl-1-pyrophosphate ([3]; metabolite 5-phosphoribosyl-1-pyrophosphate, log2 fold change): -0.0200
- Log2(fold changes) 6-phospho-D-gluconate ([3]; metabolite 6-phospho-D-gluconate, log2 fold change): 0.2100
- Log2(fold change) HVDD ([3]; metabolite HVDD): 0.0000
- Log2(fold change) Hydroxyisocaproic acid ([3]; metabolite Hydroxyisocaproic acid): 0.0000
- Log2(fold change) IDP ([3]; metabolite IDP): 0.0000
- Log2(fold change) IMP ([3]; metabolite IMP): 0.1000
- Log2(fold change) Inositol ([3]; metabolite Inositol): 0.0000
- Log2(fold change) Isopentyl-PP ([3]; metabolite Isopentyl-PP): 0.0000
- Log2(fold change) L-arginino-succinate ([3]; metabolite L-arginino-succinate): 0.0000
- Log2(fold change) LD ([3]; metabolite LD): 0.0100
- Log2(fold change) Myristoyl/tetradecanoyl-CoA ([3]; metabolite Myristoyl/tetradecanoyl-CoA): 0.0000
- Log2(fold change) N-Acetyl-L-alanine ([3]; metabolite N-Acetyl-L-alanine): -0.3700
- Log2(fold change) N-acetyl-L-ornithine ([3]; metabolite N-acetyl-L-ornithine): -0.2000
- Log2(fold change) N-acetyl-glucosamine-1/6-phosphate ([3]; metabolite N-acetyl-glucosamine-1/6-phosphate): -0.7400
- Log2(fold change) N-acetyl-glutamate ([3]; metabolite N-acetyl-glutamate): 0.0900
- Log2(fold change) N-acetyl-glutamine ([3]; metabolite N-acetyl-glutamine): -0.1600
- Log2(fold change) N-carbamoyl-L-aspartate ([3]; metabolite N-carbamoyl-L-aspartate): 4.8500
- Log2(fold change) NAD+ ([3]; metabolite NAD+): 0.1500
- Log2(fold change) NADH ([3]; metabolite NADH): 0.7500
- Log2(fold change) NADP+ ([3]; metabolite NADP+): 0.0800
- Log2(fold change) NADPH ([3]; metabolite NADPH): 0.6400
- Log2(fold change) O-acetyl-L-serine ([3]; metabolite O-acetyl-L-serine): 0.0000
- Log2(fold change) Octoluse 8/1P ([3]; metabolite Octoluse 8/1P): 0.2400
- Log2(fold change) Octoluse Bisphosphate ([3]; metabolite Octoluse Bisphosphate): -0.2600
- Log2(fold change) PD ([3]; metabolite PD): -0.0800
- Log2(fold change) PE ([3]; metabolite PE): -0.3900
- Log2(fold change) PEE ([3]; metabolite PEE): -0.4300
- Log2(fold change) PEEK ([3]; metabolite PEEK): -0.3200
- Log2(fold change) PVNF ([3]; metabolite PVNF): -0.8600
- Log2(fold change) Pyroglutamic acid ([3]; metabolite Pyroglutamic acid): 0.0900
- Log2(fold change) Pyrophosphate ([3]; metabolite Pyrophosphate): 0.2500
- Log2(fold change) Ribose-5-phosphate ([3]; metabolite Ribose-5-phosphate): 0.0000
- Log2(fold change) S-adenosyl-L-homocysteine ([3]; metabolite S-adenosyl-L-homocysteine): -1.4900
- Log2(fold change) S-adenosyl-L-methioninamine ([3]; metabolite S-adenosyl-L-methioninamine): 0.0000
- Log2(fold change) S-adenosyl-L-methionine ([3]; metabolite S-adenosyl-L-methionine): 0.0000
- Log2(fold change) S-methyl-5'-thioadenosine ([3]; metabolite S-methyl-5'-thioadenosine): -0.0400
- Log2(fold change) SD ([3]; metabolite SD): -0.2500
- Log2(fold change) SDL ([3]; metabolite SDL): 0.0000
- Log2(fold change) SID ([3]; metabolite SID): 0.0000
- Log2(fold change) Sedoheptulose bisphosphate ([3]; metabolite Sedoheptulose bisphosphate): 0.0300
- Log2(fold change) Thiamine pyrophosphate ([3]; metabolite Thiamine pyrophosphate): 0.0000
- Log2(fold changes) UDP-D-glucose ([3]; metabolite UDP-D-glucose, log2 fold change): 0.0500
- Log2(fold changes) UDP-D-glucuronate ([3]; metabolite UDP-D-glucuronate, log2 fold change): 0.0200
- Log2(fold changes) UDP-N-acetyl-glucosamine ([3]; metabolite UDP-N-acetyl-glucosamine, log2 fold change): -0.1200
- Log2(fold changes) UDP ([3]; metabolite UDP, log2 fold change): -1.5400
- Log2(fold changes) UMP ([3]; metabolite UMP, log2 fold change): -0.9900
- Log2(fold changes) UTP ([3]; metabolite UTP, log2 fold change): -1.4400
- Log2(fold change) hydroxyphenylpyruvate ([3]; metabolite hydroxyphenylpyruvate): 0.0000
- Log2(fold change) hydroxyproline/Aminolevulinate ([3]; metabolite hydroxyproline/Aminolevulinate): 0.0000
- Log2(fold change) hypoxanthine ([3]; metabolite hypoxanthine): 0.3100
- Log2(fold change) indole ([3]; metabolite indole): 0.1900
- Log2(fold change) inosine ([3]; metabolite inosine): 0.2300
- Log2(fold change) isoleucine ([3]; metabolite isoleucine): 0.0000
- Log2(fold change) lactate ([3]; metabolite lactate): -0.1200
- Log2(fold change) leucine ([3]; metabolite leucine): 0.0000
- Log2(fold change) lysine ([3]; metabolite lysine): 0.0000
- Log2(fold change) malate ([3]; metabolite malate): -0.2600
- Log2(fold change) maleic acid ([3]; metabolite maleic acid): 0.0000
- Log2(fold change) methionine ([3]; metabolite methionine): 0.0000
- Log2(fold change) myo-inositol ([3]; metabolite myo-inositol): -0.8500
- Log2(fold change) nicotinamide mononucleotide ([3]; metabolite nicotinamide mononucleotide): 0.0000
- Log2(fold change) nicotinate ([3]; metabolite nicotinate): -0.0300
- Log2(fold change) ornithine ([3]; metabolite ornithine): -0.1100
- Log2(fold change) orotate ([3]; metabolite orotate): -0.2100
- Log2(fold change) orotidine-5'-phosphate ([3]; metabolite orotidine-5'-phosphate): 0.0000
- Log2(fold change) oxaloacetate ([3]; metabolite oxaloacetate): 0.0000
- Log2(fold change) p-aminobenzoate ([3]; metabolite p-aminobenzoate): 0.0000
- Log2(fold change) p-hydroxybenzoate ([3]; metabolite p-hydroxybenzoate): 0.2000
- Log2(fold change) pantothenate ([3]; metabolite pantothenate): 0.0000
- Log2(fold change) phenylalanine ([3]; metabolite phenylalanine): 0.0000
- Log2(fold change) phenylpyruvate ([3]; metabolite phenylpyruvate): 1.0600
- Log2(fold change) phosphoenolpyruvate ([3]; metabolite phosphoenolpyruvate): 0.0800
- Log2(fold change) prephenate ([3]; metabolite prephenate): 0.0000
- Log2(fold change) proline ([3]; metabolite proline): 0.0000
- Log2(fold change) pyridoxine ([3]; metabolite pyridoxine): 0.0000
- Log2(fold change) pyruvate ([3]; metabolite pyruvate): 0.0500
- Log2(fold change) riboflavin ([3]; metabolite riboflavin): 0.0000
- Log2(fold change) ribose ([3]; metabolite ribose): 0.0000
- Log2(fold change) ribose-phosphate ([3]; metabolite ribose-phosphate): 0.2500
- Log2(fold change) ribulose-5-phosphate ([3]; metabolite ribulose-5-phosphate): 0.0000
- Log2(fold change) serine ([3]; metabolite serine): 0.0000
- Log2(fold change) sn-glycerol-3-phosphate ([3]; metabolite sn-glycerol-3-phosphate): 0.1700
- Log2(fold change) succinate/Methylmalonic acid ([3]; metabolite succinate/Methylmalonic acid): -0.0400
- Log2(fold change) succinyl-CoA/methylmalonyl-CoA ([3]; metabolite succinyl-CoA/methylmalonyl-CoA): 0.0000
- Log2(fold change) taurine ([3]; metabolite taurine): 0.0000
- Log2(fold change) thiamine ([3]; metabolite thiamine): 0.0000
- Log2(fold change) threonine/homoserine ([3]; metabolite threonine/homoserine): 0.0000
- Log2(fold change) thymidine ([3]; metabolite thymidine): -0.5100
- Log2(fold changes) thymine ([3]; metabolite thymine, log2 fold change): -0.0500
- Log2(fold changes) trehalose-6-Phosphate ([3]; metabolite trehalose-6-Phosphate, log2 fold change): 0.0000
- Log2(fold changes) tryptophan ([3]; metabolite tryptophan, log2 fold change): 0.0000
- Log2(fold changes) tyrosine ([3]; metabolite tyrosine, log2 fold change): 0.0000
- Log2(fold changes) uridine ([3]; metabolite uridine, log2 fold change): -0.1000
- metabolic signature: increases in the pyrimidine precursors dihydroorotate and N-carbamoyl-L-aspartate (mETC disruption) [4]: observed
- minimum inoculum for resistance [5]: 2 × 10^6 parasites
